Source: patent US20240327392A1, “HETEROCYCLOALKYL-SUBSTITUTED POLYHETEROAZOLE DERIVATIVES AS MEDICAMENTS FOR TREATING AND/OR PREVENTING RS VIRUS INFECTIONS” (ALBIUS SCIENCES ALPHA PRIVATE LIMITED, priority 2021, published 2024)

tested on: human RS virus A2 strain; assay: In vitro test for anti-RS virus proliferation inhibitory activity (quantitative RT-PCR of RS virus RNA copy number in infected Vero cells); format: cell-based; details: 72 h; Vero cells infected with human RS virus A2 strain, 3 days of incubation, RS virus N gene RNA copy number by quantitative RT-PCR; read-out: Anti-RS virus Activity
Procedure: A mixture of Vero cells (3.4×10^5 cells/mL) and human RS virus A2 strain (1.7×10^4 TCID50/mL) (EMEM medium supplemented with 10% FCS) was added to a 96-well plate at 50 μL/well, and the 10% FCS-supplemented EMEM medium adjusted to the desired final concentration of the compounds to be tested was added at 50 μL/well, followed by incubating the plate at 37° C. in the presence of 5% CO2 at 37° C. After 3 days of incubation, the supernatant was removed, the cells were washed with PBS(−), and the cell lysis buffer supplied with the SingleShot (registered trademark) Cell Lysis Kit (Bio-Rad) was added dropwise at 50 μL/well to lysis the cells thereby providing the cell lysate.
Human RS virus RNA copy number in the cell lysate was determined by quantitative RT-PCR using iTaq Universal SYBR Green One-Step Kit (Bio-Rad). Specifically, primers targeting human RS virus N gene (Rameix-Welti et al, Nat Commun5: 5104, 2014. doi: 10.1038/ncomms6104) was used to prepare the reaction solution according to the instructions provided with the kit, and a 96-well PikoReal Real-Time PCR System (TCR0096, Thermo Fisher Scientific) was used to detect PCR reaction and signal assay.
The copy number was calculated by the relative method using the comparative Ct method using compound-free virus-infected cells as controls.

IC50 | SMILES
> 50 µM | O=C(c1ccc2cc(C(=O)N3C[C@H](O)C[C@H]3c3nc(CCCc4ccccc4)no3)ccc2c1)N1C[C@H](O)C[C@H]1c1nc(CCCc2ccccc2)no1 [Compound 4-6, Naphthalene-2,6-diylbis(((2S,4R)-4-hydroxy-2-(3-(3-phenylpropyl)-1,2,4-oxadiazol-5-yl)pyrrolidin-1-yl)methanone)]
> 50 µM | CC(C)CS(=O)(=O)N1CCC[C@H]1c1nc(CCCc2ccccc2)no1 [Compound 1A, 3-(3-phenylpropyl)-5-[(2S)-1-isobutylsulfonylpyrrolidin-2-yl]-1,2,4-oxadiazole]
< 10 µM | O=C(N1CCC[C@H]1c1nc(CCCc2ccccc2)no1)C(F)(F)F [1C′, 3-(3-phenylpropyl)-5-[(2S)-1-trifluoroacetylpyrrolidin-2-yl]-1,2,4-oxadiazole]

SMILES | IC50
CC(C)(C)OC(=O)N1CCC[C@H]1c1nc(CCCc2ccccc2)no1 [Compound 1-1, 3-(3-phenylpropyl)-5-[(2S)-1-tert-butoxycarbonylpyrrolidin-2-yl]-1,2,4-oxadiazole] | > 50 µM

same assay, conditions: 72 h; Vero cells infected with human RS virus A2 strain, 3 days of incubation, RS virus RNA copy number by quantitative RT-PCR; read-out: Anti-RS virus Activity

SMILES | IC50
CC(C)CS(=O)(=O)N1CCC[C@H]1c1nc(CCc2ccccc2)no1 [Compound 9A, 3-(2-phenylethyl)-5-[(2S)-1-isobutylsulfonylpyrrolidin-2-yl]-1,2,4-oxadiazole] | > 50 µM
CC(C)(C)OC(=O)N1CCC[C@H]1c1nc(CCc2ccccc2)no1 [Compound 9-1, 3-(2-phenylethyl)-5-[(2S)-1-tert-butoxycarbonylpyrrolidin-2-yl]-1,2,4-oxadiazole] | > 50 µM
O=C(NCc1cnc2ccccc2c1)N1[C@@H]2CC[C@@H](C2)[C@H]1c1nnc(Cc2cc3ccccc3[nH]2)[nH]1 [Compound 28AH] | 10 to 50 µM
CC(C)(C)[S+]([O-])N1CCCC[C@H]1c1nc(CCCc2ccccc2)no1 (single isomer, unassigned) [2W′] | 10 to 50 µM
CCOC(=O)C1CCN(S(=O)(=O)N2CCCC[C@H]2c2nc(CCCc3ccccc3)no2)CC1 [Compound 2AC, Ethyl (S)-1-((2-(3-(3-phenylpropyl)-1,2,4-oxadiazol-5-yl)piperidin-1-yl)sulfonyl)piperidine-4-carboxylate] | 10 to 50 µM
COC(=O)N1CCC[C@H]1c1nc(CCCc2ccccc2)no1 [Compound 1K, Methyl (S)-2-(3-(3-phenylpropyl)-1,2,4-oxadiazol-5-yl) pyrrolidine-1-carboxylate] | 10 to 50 µM
CC(C)(C)NC(=O)N1CCC[C@H]1c1nc(CCCc2ccccc2)no1 [Compound 1H, (S)—N-(tert-butyl)-2-(3-(3-phenylpropyl)-1,2,4-oxadiazol-5-yl) pyrrolidine-1-carboxamide] | > 50 µM
CC(C)(C)OC(=O)N1CCCC[C@H]1c1nc(CCc2ccccc2)no1 [Compound 10-1, 3-(3-phenylethyl)-5-[(2S)-1-tert-butoxycarbonylpiperidin-2-yl]-1,2,4-oxadiazole] | 10 to 50 µM
c1ccc(CCCc2noc([C@@H]3CCCCN3CCc3ccccc3)n2)cc1 [Compound 2AB, (S)-5-(1-phenethylpiperidin-2-yl)-3-(3-phenylpropyl)-1,2,4-oxadiazole] | 10 to 50 µM
CC(C)(C)OC(=O)N1C[C@H](c2ccccc2)C[C@H]1c1nc(CCCc2ccccc2)no1 [Compound 7-1, 3-(3-phenylpropyl)-5-[(2S,4S)-1-tert-butoxycarbonyl-4-phenylpyrrolidin-2-yl]-1,2,4-oxadiazole] | < 10 µM
O=C(NCc1noc([C@@H]2CCCCN2S(=O)(=O)C2CCCCC2)n1)c1cccc2ccccc12 [Compound 26B, (S)—N-((5-(1-(cyclohexylsulfonyl)piperidin-2-yl)-1,2,4-oxadiazol-3-yl)methyl)-1-naphthamide] | 10 to 50 µM
COc1ccc(C(=O)NCc2noc([C@@H]3CCCCN3S(=O)(=O)C3CCCCC3)n2)cc1OC [Compound 27B, (S)—N-((5-(1-(cyclohexylsulfonyl)piperidin-2-yl)-1,2,4-oxadiazol-3-yl)methyl)-3,4-dimethoxybenzamide] | 10 to 50 µM
Cc1oc([C@@H]2CCCCN2S(=O)(=O)C2CCCCC2)nc1C(=O)O [Compound 33B, (S)-2-(1-(Cyclohexylsulfonyl)piperidin-2-yl)-5-methyl oxazole-4-carboxylic acid] | 10 to 50 µM

Second part, the compound after the results:

IC50 | SMILES
10 to 50 µM | c1ccc(CCCc2noc([C@@H]3CCCCN3Cc3ccccc3)n2)cc1 [Compound 2AA, (S)-5-(1-benzylpiperidin-2-yl)-3-(3-phenylpropyl)-1,2,4-oxadiazole]
< 10 µM | CN(C)c1ccc(S(=O)(=O)N2CC3(CC3)C[C@H]2c2nc(CCCc3ccccc3)no2)cc1 [Compound 5AK, (S)-N,N-dimethyl-4-((6-(3-(3-phenylpropyl)-1,2,4-oxadiazole-5-yl)-5-azaspiro[2.4]heptan-5-yl)sulfonyl)aniline]
10 to 50 µM | COC(=O)c1nc([C@@H]2CCCCN2S(=O)(=O)C2CCCCC2)[nH]c1C [Compound 38B, Methyl (S)-2-(1-(cyclohexylsulfonyl)piperidin-2-yl)-5-methyl-1H-Imidazole-4-carboxylate]
10 to 50 µM | CC(=O)N1CCC[C@H]1c1nc(CCCc2ccccc2)no1 [Compound 1R]
10 to 50 µM | O=S(=O)(N1CCCCC1)N1CC2(CC2)C[C@H]1c1nc(CCCc2ccccc2)no1 [Compound 5AD, (S)-3-(3-phenylpropyl)-5-(5-(piperidin-1-ylsulfonyl)-5-azaspiro[2.4]heptan-6-yl)-1,2,4-oxadiazole]
10 to 50 µM | O=S(=O)(C1CCCCC1)N1CCCCC1c1ncc(-c2ccccc2)[nH]1 (stereo not drawn) [Compound 40B]
< 10 µM | CC(C)CC(=O)N1CCC[C@H]1c1nc(CCCc2ccccc2)no1 [Compound 1Q, (S)-3-Methyl-1-(2-(3-(3-phenylpropyl)-1,2,4-oxadiazol-5-yl)pyrrolidin-1-yl) butan-1-one]
< 10 µM | O=S(=O)(Cc1ccccc1)N1CC(CC2CCC2)CC1c1nc(CCCc2ccccc2)no1 (stereo not drawn) [Compound 6E, 3-(3-phenylpropyl)-5-(1-benzylsulfonyl-4-cyclobutylmethylpyrrolidin-2-yl)-1,2,4-oxadiazole]
< 10 µM | O=S(=O)(C1CCOCC1)N1CC(CC2CCC2)CC1c1nc(CCCc2ccccc2)no1 (stereo not drawn) [Compound 6AP, 5-(4-(cyclobuthylmethyl)-1-((tetrahydro-2H-pyran-4-yl)sulfonyl)pyrrolidin-2-yl)-3-(3-phenylpropyl)-1,2,4-oxadiazole]
< 10 µM | CC(C)(C)OC(=O)N1CCCC[C@H]1c1nnc(CCCc2ccccc2)[nH]1 [Compound 20-1, Tert-butyl (S)-2-(5-(3-phenylpropyl)-4H-1,2,4-triazol-3-yl) piperidine-1-carboxylate]
10 to 50 µM | CC(C)CS(=O)(=O)N1[C@@H]2CC[C@@H](C2)[C@H]1c1nc(CCc2ccccc2)no1 [Compound 14A, 5-((1R,3S,4S)-2-(isobutylsulfonyl)-2-azabicyclo[2.2.1]heptan-3-yl)-3-phenethyl-1,2,4-oxadiazole]
< 10 µM | c1ccc(CCCc2noc([C@@H]3CCCCN3CC3CCCCC3)n2)cc1 [Compound 2U, (S)-5-(1-(cyclohexylmethyl)piperidin-2-yl)-3-(3-phenylpropyl)-1,2,4-oxadiazole]
10 to 50 µM | O=S(=O)(N1CCCCC1)n1nc([C@H]2N[C@@H]3CC[C@H]2C3)nc1CCc1ccncc1 [25AD′]
< 10 µM | O=S(=O)(C1CCCCC1)N1CC(c2ccccc2)C[C@H]1c1nc(CCCc2ccccc2)no1 (stereo in doubt) [Compound 7B, 3-(3-Phenylpropyl)-5-[(2S,4S)-1-cyclohexylsulfonyl-4-phenylpyrrolidin-2-yl]-1,2,4-oxadiazole]
< 10 µM | CC(C)CC(=O)N1CCCC[C@H]1c1nc(CCCc2ccccc2)no1 [Compound 2Q, (S)-3-Methyl-1-(2-(3-(3-phenylpropyl)-1,2,4-oxadiazol-5-yl)piperidin-1-yl)butan-1-one]
< 10 µM | O=S(=O)(c1ccccc1)N1CC(c2ccccc2)C[C@H]1c1nc(CCCc2ccccc2)no1 (stereo in doubt) [Compound 7D, 3-(3-phenylpropyl)-5-[(2S,4S)-1-benzenesulfonyl-4-phenylpyrrolidin-2-yl]-1,2,4-oxadiazole]
< 10 µM | CC(C)COC(=O)N1CCC[C@H]1c1nc(CCCc2ccccc2)no1 [Compound 1I, Isobutyl (S)-2-(3-(3-phenylpropyl)-1,2,4-oxadiazol-5-yl) pyrrolidine-1-carboxylate]
< 10 µM | O=S(=O)(C1CCOCC1)N1C[C@H](c2ccccc2)C[C@H]1c1nc(CCCc2ccccc2)no1 [Compound 7AP, 5-((2S,4S)-4-phenyl1-((tetrahydro-2H-pyran-4-yl)sulfonyl)pyrrolidin-2-yl)-3-(3-phenylpropyl)-1,2,4-oxadiazole]
< 10 µM | CN(C)c1ccc(S(=O)(=O)N2C[C@H](F)C[C@H]2c2nc(CCCc3ccccc3)no2)cc1 [Compound 8AK, 4-(((2S,4R)-4-fluoro-2-(3-(3-phenylpropyl)-1,2,4-oxadiazole-5-yl)pyrrolidin-1-yl)sulfonyl)-N,N-dimethylaniline]
